How the values were obtained:
[1] = tested on: HAP1 MTAP-deleted cell line; assay: Viability assay, HAP1 MTAP-deleted cell line; assay type: cell-based; conditions: Homo sapiens; viability assay, HAP1 MTAP-deleted cell line; read-out: Hap1 MTAP deleted viability IC50
[2] = tested on: SDMA in HAP1 MTAP-intact cell line (PRMT5 inhibition); assay: SDMA in-cell western assay, HAP1 MTAP-intact cell line; conditions: Homo sapiens, HAP1, read-out: Hap1 MTAP intact IC50
Description: (§1) HAP1 MTAP-intact is a cell line in which endogenous levels of MTAP are expressed, and HAP1 MTAP-deleted is an MTAP-null cell line.

[3] = tested on: SDMA in HAP1 MTAP-deleted (MTAP-null) cell line (PRMT5 inhibition); assay: SDMA in-cell western assay, HAP1 MTAP-deleted cell line; conditions: for IC50 / IC90: Homo sapiens; for IC50: HAP1, read-out: Hap1 MTAP deleted IC50; for IC90: HAP1, read-out: Hap1 MTAP deleted IC90; for Hap1 MTAP intact/deleted ratio: ratio of SDMA IC50 in HAP1 MTAP-intact to HAP1 MTAP-deleted cell line
Description: as §1

Row | IC50 [2] [nM] | IC50 [3] [nM] | IC90 [3] [nM] | SMILES | IC50 [1] [nM] | Hap1 MTAP intact/deleted ratio [3]
1 | > 50 | < 5 | < 75 | Cc1cc(F)ccc1CN(CC(C)C)C(=O)C(=O)Nc1cnc(N)c2cn[nH]c12 [Compound 71, N-(4-amino-1H-pyrazolo[4,3-c]pyridin-7-yl)-N′-[(4-fluoro-2-methyl-phenyl)methyl]-N′-isobutyl-oxamide] | < 100 | A (IC50 ratio greater than or equal to 30 fold)
2 | > 50 | 5 to 50 | > 125 | C[C@@H](c1ccc(C(F)(F)F)cn1)N(C)C(=O)C(=O)Nc1cnc(N)c2cn[nH]c12 [Compound 127, N-(4-amino-1H-pyrazolo[4,3-c]pyridin-7-yl)-N′-methyl-N′—[(1S)-1-[5-(trifluoromethyl)-2-pyridyl]ethyl]oxamide] | 100 to 1000 | A (IC50 ratio greater than or equal to 30 fold)
3 | 5 to 50 | < 5 | < 75 | C[C@@H](c1ncccn1)N(Cc1ccc(C(F)(F)F)cn1)C(=O)C(=O)Nc1cnc(N)c2cn[nH]c12 (stereo in doubt) [Compound 50, N-(4-amino-1H-pyrazolo[4,3-c]pyridin-7-yl)-N′-(1-pyrimidin-2-ylethyl)-N′-[[5-(trifluoromethyl)-2-pyridyl]methyl]oxamide] | < 100 | C (IC50 ratio of less than 15 fold)
4 | > 50 | < 5 | 75 to 125 | CCN(Cc1ccccc1C)C(=O)C(=O)Nc1cnc(N)c2cn[nH]c12 [Compound 151, N-(4-amino-1H-pyrazolo[4,3-c]pyridin-7-yl)-N′-ethyl-N′-(0-tolylmethyl)oxamide] | < 100 | A (IC50 ratio greater than or equal to 30 fold)
5 | 5 to 50 | < 5 | < 75 | CCN(Cc1ccc(C(F)(F)F)cc1F)C(=O)C(=O)Nc1cnc(N)c2cn[nH]c12 [Compound 72, N-(4-amino-2H-pyrazolo[4,3-c]pyridin-7-yl)-N′-ethyl-N′-[[2-fluoro-4-(trifluoromethyl)phenyl]methyl]oxamide] | < 100 | A (IC50 ratio greater than or equal to 30 fold)
6 | > 50 | < 5 | < 75 | CCN(C(=O)C(=O)Nc1cnc(N)c2cn[nH]c12)[C@@H](C)c1ccc(C(F)(F)F)cc1C [Compound 57, (S)—N^1-(4-amino-1H-pyrazolo[4,3-c]pyridin-7-yl)-N^2-ethyl-N^2-(1-(2-methyl-4-(trifluoromethyl)phenyl)ethyl)oxalamide] | < 100 | B (IC50 ratio greater than or equal to 15 fold but lower than 30 fold)
7 | < 5 | < 5 | < 75 | CC[C@H](C)CN(Cc1ccc(C(F)(F)F)cn1)C(=O)C(=O)Nc1cnc(N)c2cn[nH]c12 [Compound 64, (S)—N^1-(4-amino-1H-pyrazolo[4,3-c]pyridin-7-yl)-N^2-(2-methylbutyl)-N^2-((5-(trifluoromethyl)pyridin-2-yl)methyl)oxalamide] | < 100 | C (IC50 ratio of less than 15 fold)
8 | > 50 | < 5 | 75 to 125 | Nc1ncc(NC(=O)C(=O)N(Cc2ccc(C(F)(F)F)cc2)C2CCC2)c2[nH]ncc12 [Compound 118] | < 100 | B (IC50 ratio greater than or equal to 15 fold but lower than 30 fold)
9 | 5 to 50 | < 5 | < 75 | CCN(C(=O)C(=O)Nc1cnc(N)c2cn[nH]c12)[C@H](C)c1ccc(C(F)(F)F)cc1C [Compound 70, (R)—N^1-(4-amino-1H-pyrazolo[4,3-c]pyridin-7-yl)-N^2-ethyl-N^2-(1-(2-methyl-4-(trifluoromethyl)phenyl)ethyl)oxalamide] | < 100 | C (IC50 ratio of less than 15 fold)
10 | 5 to 50 | < 5 | < 75 | CC(C)CN(Cc1ccc(S(F)(F)(F)(F)F)cc1)C(=O)C(=O)Nc1cnc(N)c2cn[nH]c12 [Compound 110] | < 100 | C (IC50 ratio of less than 15 fold)

The remaining lines, values behind:

Row | SMILES | IC50 [2] [nM] | IC50 [3] [nM] | IC90 [3] [nM] | IC50 [1] [nM] | Hap1 MTAP intact/deleted ratio [3]
11 | CCc1cc(NC(=O)C(=O)N(Cc2ccc(C(F)(F)F)cn2)C2CCC(C)c3ccccc32)cnc1N (stereo not drawn) [Compound 10, N-(6-amino-5-ethyl-3-pyridyl)-N′-(4-methyltetralin-1-yl)-N′-[[5-(trifluoromethyl)-2-pyridyl]methyl]oxamide] | > 50 | 5 to 50 | 75 to 125 | 100 to 1000 | C (IC50 ratio of less than 15 fold)
12 | Cc1ccccc1CN(Cc1ccc(Cl)cc1)C(=O)C(=O)Nc1cnc(N)c2cn[nH]c12 [Compound 109, N-(4-amino-1H-pyrazolo[4,3-c]pyridin-7-yl)-N′-[(4-chlorophenyl)methyl]-N′-(o-tolylmethyl)oxamide] | 5 to 50 | < 5 | < 75 | < 100 | C (IC50 ratio of less than 15 fold)
13 | CCN(Cc1ccc(S(F)(F)(F)(F)F)cc1C)C(=O)C(=O)Nc1cnc(N)c2cn[nH]c12 [Compound 194, N-(4-Amino-1H-pyrazolo[4,3-c]pyridin-7-yl)-N′-ethyl-N′-[[2-methyl-4-(pentafluoro-sulfanyl)phenyl]methyl]oxamide] | 5 to 50 | < 5 | < 75 | < 100 | B (IC50 ratio greater than or equal to 15 fold but lower than 30 fold)
14 | CCc1cc(NC(=O)C(=O)N(Cc2ccc(C(F)(F)F)cn2)[C@@H]2CCc3ccccc32)cnc1N [Compound 36, (R)-N1-(6-amino-5-ethylpyridin-3-yl)-N2-(2,3-dihydro-1H-inden-1-yl)-N2-((5-(trifluoromethyl)pyridin-2-yl)methyl)oxalamide] | > 50 | 5 to 50 | 75 to 125 | < 100 | A (IC50 ratio greater than or equal to 30 fold)
15 | Nc1ncc(NC(=O)C(=O)N(Cc2ccccc2)Cc2ccccc2Cl)c2[nH]ncc12 [Compound 87, N-(4-amino-1H-pyrazolo[4,3-c]pyridin-7-yl)-N′-benzyl-N′-[(2-chlorophenyl)methyl]oxamide] | 5 to 50 | < 5 | < 75 | < 100 | B (IC50 ratio greater than or equal to 15 fold but lower than 30 fold)
16 | C[C@@H](c1ccc(C(F)(F)C(F)(F)F)cc1F)N(C)C(=O)C(=O)Nc1cnc(N)c2cn[nH]c12 [Compound 168, N-(4-Amino-1H-pyrazolo[4,3-c]pyridin-7-yl)-N′-methyl-N′—[(1S)-1-[2-fluoro-4-(1,1,2,2,2-pentafluoroethyl)phenyl]ethyl]oxamide] | > 50 | 5 to 50 | 75 to 125 | < 100 | A (IC50 ratio greater than or equal to 30 fold)
17 | NC(=O)c1cncc(NC(=O)C(=O)N(Cc2ccc(C(F)(F)F)cn2)[C@@H]2CCC[C@H]2OC(F)F)c1 [Compound 22, N1-(5-carbamoylpyridin-3-yl)-N^2-((1R,2R)-2-(difluoromethoxy)cyclopentyl)-N^2-((5-(trifluoromethyl)pyridin-2-yl)methyl)oxalamide] | > 50 | 5 to 50 | 75 to 125 | 100 to 1000 | A (IC50 ratio greater than or equal to 30 fold)
18 | CCc1cc(NC(=O)C(=O)N(Cc2ccc(C(F)(F)F)cn2)[C@@H]2CCC[C@H]2OC(F)F)cnc1N [Compound 35, N1-(6-amino-5-ethylpyridin-3-yl)-N^2-((1R,2R)-2-(difluoromethoxy)cyclopentyl)-N^2-((5-(trifluoromethyl)pyridin-2-yl)methyl)oxalamide] | > 50 | 5 to 50 | > 125 | 100 to 1000 | A (IC50 ratio greater than or equal to 30 fold)
19 | COC[C@@H](C1CC1)N(Cc1ccc(C(F)(F)F)cn1)C(=O)C(=O)Nc1cnc(OC)c(C(N)=O)c1 [Compound 37, (R)-N1-(5-carbamoyl-6-methoxypyridin-3-yl)-N^2-(1-cyclopropyl-2-methoxyethyl)-N^2-((5-(trifluoromethyl)pyridin-2-yl)methyl)oxalamide] | > 50 | 5 to 50 | < 75 | < 100 | B (IC50 ratio greater than or equal to 15 fold but lower than 30 fold)
20 | Nc1ncc(NC(=O)C(=O)N(Cc2ccccc2)Cc2ccccc2C(F)(F)F)c2[nH]ncc12 [Compound 95, N-(4-amino-1H-pyrazolo[4,3-c]pyridin-7-yl)-N′-benzyl-N′-[[2-(trifluoromethyl)phenyl]methyl]oxamide] | < 5 | < 5 | < 75 | < 100 | C (IC50 ratio of less than 15 fold)
21 | CC1CCC(N(Cc2ccc(C(F)(F)F)cn2)C(=O)C(=O)Nc2ccn3ccnc3c2)c2ccccc21 (stereo not drawn) [Compound 12, N-imidazo[1,2-a]pyridin-7-yl-N′-(4-methyltetralin-1-yl)-N′-[[5-(trifluoromethyl)-2-pyridyl]methyl]oxamide] | > 50 | 5 to 50 | > 125 | 100 to 1000 | C (IC50 ratio of less than 15 fold)
